Experimental data from patent publication US8716493B2, “Multicyclic compounds and the use thereof” (Cephalon, Inc., priority 2000, dated 2014).

target: recombinant human PARP (Homo sapiens, UniProt P09874); experiment: Measurement of PARP enzymatic activity (transfer of radiolabeled ADP-ribose from NAD+ to protein acceptor); type: biochemical; conditions: PARP IC50 (nM), Table 2
Description: PARP activity was monitored by transfer of radiolabeled ADP-ribose units from [^32]NAD^+ to a protein acceptor such as histone or PARP itself. […] The reactions were initiated by the addition of 100 μM NAD^+ supplemented with 2 uCi [^32]NAD^+/mL and maintained at room temperature for 12 minutes. […] The amount of acid-insoluble radioactivity, corresponding to polyADP-ribosylated protein, was quantitated in a Wallac MicroBeta scintillation counter.
Single-point inhibition data were calculated by comparing PARP, VEGFR2, or MLK3 activity in the presence of inhibitor to activity in the presence of DMSO only. Inhibition curves for compounds were generated by plotting percent inhibition versus log10 of the concentration of compound. IC50 values were calculated by nonlinear regression using the sigmoidal dose-response (variable slope) equation in GraphPad Prism as follows: y=bottom+(top−bottom)/(1+10^(log IC50^−x)*Hillslope) where y is the % activity at a given concentration of compound, x is the logarithm of the concentration of compound, bottom is the % inhibition at the lowest compound concentration tested, and top is the % inhibition at the highest compound concentration examined. The values for bottom and top were fixed at 0 and 100, respectively. IC50 values were reported as the average of at least three separate determinations.
For some compounds, inhibiting data is presented as percent inhibition at a specified concentration. Compounds are tabulated together with compound number, substituents, and enzyme inhibition data.

recombinant human PARP, sequence (P09874 whole entry): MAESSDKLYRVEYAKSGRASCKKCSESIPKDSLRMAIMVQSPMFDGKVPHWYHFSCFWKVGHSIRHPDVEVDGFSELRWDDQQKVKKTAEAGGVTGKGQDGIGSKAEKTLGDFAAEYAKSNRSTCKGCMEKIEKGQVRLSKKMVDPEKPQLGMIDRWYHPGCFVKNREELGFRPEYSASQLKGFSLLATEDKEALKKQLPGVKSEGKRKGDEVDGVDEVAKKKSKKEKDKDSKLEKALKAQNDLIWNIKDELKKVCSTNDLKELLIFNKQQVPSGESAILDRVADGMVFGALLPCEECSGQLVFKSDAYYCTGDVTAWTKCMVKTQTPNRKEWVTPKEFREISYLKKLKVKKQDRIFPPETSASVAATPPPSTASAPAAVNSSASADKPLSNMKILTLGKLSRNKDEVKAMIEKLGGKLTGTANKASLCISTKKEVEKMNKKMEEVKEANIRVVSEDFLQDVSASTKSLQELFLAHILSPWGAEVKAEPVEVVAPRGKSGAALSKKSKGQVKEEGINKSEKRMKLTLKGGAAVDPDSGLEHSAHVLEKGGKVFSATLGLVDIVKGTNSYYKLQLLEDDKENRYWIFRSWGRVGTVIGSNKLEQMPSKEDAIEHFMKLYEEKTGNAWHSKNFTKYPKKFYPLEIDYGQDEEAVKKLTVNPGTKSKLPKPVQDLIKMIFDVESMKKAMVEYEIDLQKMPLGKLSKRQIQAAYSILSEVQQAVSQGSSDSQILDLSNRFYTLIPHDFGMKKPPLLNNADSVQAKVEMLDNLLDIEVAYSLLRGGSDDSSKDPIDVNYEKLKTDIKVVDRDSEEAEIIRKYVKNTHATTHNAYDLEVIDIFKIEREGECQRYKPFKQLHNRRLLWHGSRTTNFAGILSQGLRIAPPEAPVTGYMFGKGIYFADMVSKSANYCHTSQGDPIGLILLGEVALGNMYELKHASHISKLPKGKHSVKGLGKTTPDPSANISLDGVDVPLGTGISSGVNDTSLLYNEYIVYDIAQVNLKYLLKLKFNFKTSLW

| Structure (SMILES) | IC50 |
| --- | --- |
| O=C(NCc1nc(-c2ccc3[nH]c4c5c(c6c(c4c3c2)C(=O)NC6=O)CCC5)cs1)OCc1ccccc1 [Compound 3j] | 20 nM |
| O=C1NC(=O)c2c1c1c(c3[nH]c4ccc(-c5csc(CNC(=O)C6CCCC6)n5)cc4c23)CCC1 [Compound 3x] | 52 nM |

same assay, conditions: PARP IC50, Table 18

| Structure (SMILES) | IC50 |
| --- | --- |
| O=C(NCCn1cncn1)Oc1ccc2[nH]c3c4c(c5c(c3c2c1)C(=O)NC5=O)CCC4 [Compound 15n] | 38 nM |

same assay, conditions: Table 1; read-out: PARP IC50

| IC50 | Structure (SMILES) |
| --- | --- |
| 160 nM | NCCC(=O)N1C(=O)c2c3c(c4[nH]c5ccccc5c4c2C1=O)CCC3 [Compound 1l] |
| 36 nM | O=C1NC(=O)c2c1c1c(c3[nH]c4ccccc4c23)CCC1 [Compound 1a, 5,7,8,9,10,11-hexahydrocyclopent[a]pyrrolo[3,4-c]carbazole-5(6H), 7-dione] |
| 819 nM | CCN(CC)CCCN1C(=O)c2c3c(c4[nH]c5ccccc5c4c2C1=O)CCC3 [Compound 1h] |
| 250 nM | O=C1c2c3c(c4[nH]c5ccccc5c4c2C(=O)N1S(=O)(=O)c1ccccc1)CCC3 [Compound 1j] |

| Structure (SMILES) | IC50 |
| --- | --- |
| CC(C)(C)OC(=O)NCCCC[C@H](NC(=O)OC(C)(C)C)C(=O)n1c2ccccc2c2c3c(c4c(c21)CCC4)C(=O)NC3 [Compound 1u, 11-[Bis(t-butoxycarbonyl)-L-lysyl]-5,7,8,9,10,11-hexahydrocyclopent[a]pyrrolo[3,4-c]carbazole-7(6H)-one] | 1500 nM |

same assay, conditions: Table 2; read-out: PARP IC50

| IC50 | Structure (SMILES) |
| --- | --- |
| 17 nM | CC(=O)c1ccc2[nH]c3c4c(c5c(c3c2c1)C(=O)NC5=O)CCC4 [Compound 2d] |
| 42 nM | NCc1nc(-c2ccc3[nH]c4c5c(c6c(c4c3c2)C(=O)NC6=O)CCC5)cs1 [Compound 3k] |
| 29 nM | CC(C)(C)OC(=O)Cc1nc(-c2ccc3[nH]c4c5c(c6c(c4c3c2)C(=O)NC6=O)CCC5)cs1 [Compound 3q] |
| 34 nM | O=CNCc1ccc2[nH]c3c4c(c5c(c3c2c1)C(=O)NC5=O)CCC4 [Compound 2ce] |
| 29 nM | CN(C)Cc1ccc2[nH]c3c4c(c5c(c3c2c1)C(=O)NC5=O)CCC4 [Compound 2bj] |
| 2 nM | O=C(CCC(=O)N1CCCC1C(=O)O)c1ccc2[nH]c3c4c(c5c(c3c2c1)C(=O)NC5=O)CCC4 (centres unmarked) [Compound 4j] |
| 1 nM | O=C(O)c1nccnc1C(=O)c1ccc2[nH]c3c4c(c5c(c3c2c1)C(=O)NC5=O)CCC4 [Compound 4k] |
| 95 nM | CC(C)(C)OC(=O)NCCC(=O)NCc1ccc2[nH]c3c4c(c5c(c3c2c1)C(=O)NC5=O)CCC4 [Compound 2ca] |
| 23 nM | CN(CC1CCNCC1)C(=O)c1ccc2[nH]c3c4c(c5c(c3c2c1)C(=O)NC5=O)CCC4 [Compound 2cy] |
| 43 nM | CCOCc1ccc2[nH]c3c4c(c5c(c3c2c1)C(=O)NC5=O)CCC4 [Compound 2de] |
| 5 nM | O=C(O)C(=O)c1ccc2[nH]c3c4c(c5c(c3c2c1)C(=O)NC5=O)CCC4 [Compound 2bb] |
| 14 nM | N#Cc1ccc2[nH]c3c4c(c5c(c3c2c1)C(=O)NC5=O)CCC4 [Compound 2o, 3-Cyano-5,7,8,9,10,11-hexahydrocyclopent[a]pyrrolo[3,4-c]carbazole-5(6H), 7-dione] |
| 54 nM | CC(=O)Nc1nc(-c2ccc3[nH]c4c5c(c6c(c4c3c2)C(=O)NC6=O)CCC5)cs1 [Compound 3i] |
| 54 nM | CNc1nc(-c2ccc3[nH]c4c5c(c6c(c4c3c2)C(=O)NC6=O)CCC5)cs1 [Compound 3h] |
| 28 nM | CCCCN(CCCC)Cc1ccc2[nH]c3c4c(c5c(c3c2c1)C(=O)NC5=O)CCC4 [Compound 2bn] |
| 82 nM | Cc1ccc2[nH]c3c4c(c5c(c3c2c1)C(=O)NC5=O)CCC4 [Compound 2bf] |
| 21 nM | O=C(NCc1cccnc1)c1ccc2[nH]c3c4c(c5c(c3c2c1)C(=O)NC5=O)CCC4 [Compound 2cl] |
| 28 nM | CCC(=O)NCc1ccc2[nH]c3c4c(c5c(c3c2c1)C(=O)NC5=O)CCC4 [Compound 2s, 3-(Propanoylaminomethyl)-5,7,8,9,10,11-hexahydrocyclopent[a]pyrrolo[3,4-c]carbazole-5(6H), 7-dione] |
| 10 nM | CC(C)(C)OC(=O)N1CCN(C(=O)CCC(=O)c2ccc3[nH]c4c5c(c6c(c4c3c2)C(=O)NC6=O)CCC5)CC1 [Compound 4q] |
| 9 nM | COC(=O)CCCC(=O)NCc1ccc2[nH]c3c4c(c5c(c3c2c1)C(=O)NC5=O)CCC4 [Compound 2aa, 3-(N-(4-(Methoxycarbonyl)butanoyl)aminomethyl)-5,7,8,9,10,11-hexahydrocyclopent[a]pyrrolo[3,4-c]carbazole-5(6H), 7-dione] |
| 45 nM | NCC(=O)NCc1ccc2[nH]c3c4c(c5c(c3c2c1)C(=O)NC5=O)CCC4 [Compound 2x, 3-(N-(2-(Amino)acetyl)aminomethyl)-5,7,8,9,10,11-hexahydrocyclopent[a]pyrrolo[3,4-c]carbazole-5(6H), 7-dione] |

| IC50 | Structure (SMILES) |
| --- | --- |
| 15 nM | O=C(Cn1cncn1)c1ccc2[nH]c3c4c(c5c(c3c2c1)C(=O)NC5=O)CCC4 [Compound 2n] |
| 102 nM | CC(O)c1ccc2[nH]c3c4c(c5c(c3c2c1)C(=O)NC5=O)CCC4 (centres unmarked) [Compound 2ax] |
| 39 nM | O=C1NC(=O)c2c1c1c(c3[nH]c4ccc(F)cc4c23)CCC1 [Compound 2c] |
| 44 nM | CCCC(=O)NCc1ccc2[nH]c3c4c(c5c(c3c2c1)C(=O)NC5=O)CCC4 [Compound 2t, 3-(Butanoylaminomethyl)-5,7,8,9,10,11-hexahydrocyclopent[a]pyrrolo[3,4-c]carbazole-5(6H), 7-dione] |
| 32 nM | COc1ccc2[nH]c3c4c(c5c(c3c2c1)C(=O)NC5=O)CCC4 [Compound 2ap] |
| 32 nM | CC(C)C(=O)NCc1nc(-c2ccc3[nH]c4c5c(c6c(c4c3c2)C(=O)NC6=O)CCC5)cs1 [Compound 3t] |
| 8 nM | O=C1NC(=O)c2c1c1c(c3[nH]c4ccc(S(=O)(=O)O)cc4c23)CCC1 [Compound 2ae] |
| 12 nM | CC(C)(C)OC(=O)[C@@H]1CCCN1CC(=O)c1ccc2[nH]c3c4c(c5c(c3c2c1)C(=O)NC5=O)CCC4 [Compound 4b] |
| 12 nM | COC(=O)C(=O)c1ccc2[nH]c3c4c(c5c(c3c2c1)C(=O)NC5=O)CCC4 [Compound 2ba] |
| 24 nM | N#CCc1ccc2[nH]c3c4c(c5c(c3c2c1)C(=O)NC5=O)CCC4 [Compound 2bc] |
| 21 nM | CCN(CC)CC(=O)c1ccc2[nH]c3c4c(c5c(c3c2c1)C(=O)NC5=O)CCC4 [Compound 2j] |
| 16 nM | O=C(CCC(=O)N1CCCC1)c1ccc2[nH]c3c4c(c5c(c3c2c1)C(=O)NC5=O)CCC4 [Compound 4t] |
| 22 nM | NCCNC(=O)CCC(=O)c1ccc2[nH]c3c4c(c5c(c3c2c1)C(=O)NC5=O)CCC4 [Compound 4e] |
| 12 nM | CN1CCN(C(=O)c2ccc3[nH]c4c5c(c6c(c4c3c2)C(=O)NC6=O)CCC5)CC1 [Compound 2cq] |
| 18 nM | O=C1NC(=O)c2c1c1c(c3[nH]c4ccc(C(=O)N(CCO)CCO)cc4c23)CCC1 [Compound 2dc] |
| 124 nM | O=CNCc1ccc2[nH]c3c4c(c5c(c3c2c1)C(O)NC5=O)CCC4 (centres unmarked) [Compound 2cf] |
| 88 nM | CCN(CC)CCOc1ccc2[nH]c3c4c(c5c(c3c2c1)C(=O)NC5=O)CCC4 [Compound 2ar] |
| 37 nM | O=C(NCc1ccc2[nH]c3c4c(c5c(c3c2c1)C(=O)NC5=O)CCC4)c1ccccc1 [Compound 2u, 3-(Benzoylaminomethyl)-5,7,8,9,10,11-hexahydrocyclopent[a]pyrrolo[3,4-c]carbazole-5(6H), 7-dione] |
| 116 nM | CCc1ccc2[nH]c3c4c(c5c(c3c2c1)C(=O)NC5=O)CCC4 [Compound 2az] |
| 38 nM | CS(=O)(=O)Cc1nc(-c2ccc3[nH]c4c5c(c6c(c4c3c2)C(=O)NC6=O)CCC5)cs1 [Compound 3z] |

same assay, conditions: Table 3; read-out: PARP IC50

| IC50 | Structure (SMILES) |
| --- | --- |
| 36 nM | O=C1NC(=O)c2c1c1c(c3[nH]c4ccccc4c23)CCC1 [Compound 1a, 5,7,8,9,10,11-hexahydrocyclopent[a]pyrrolo[3,4-c]carbazole-5(6H), 7-dione] |
| 62 nM | NCCCC[C@H](N)C(=O)N1C(=O)c2c3c(c4[nH]c5ccc(Cl)cc5c4c2C1=O)CCC3 [Compound 6f] |

same assay, conditions: Table 4; read-out: PARP IC50

| IC50 | Structure (SMILES) |
| --- | --- |
| 6 nM | N#Cc1c[nH]c2c3c(c4c(c12)C(=O)NC4=O)CCC3 [Compound 8d, 3-Cyano-1,6,7,8-tetrahydrocyclopent[g]indole-4,5-dicarboxylate imide] |

same assay, conditions: Table 18; read-out: PARP IC50

| IC50 | Structure (SMILES) |
| --- | --- |
| 7 nM | COc1c(C#N)ccc2[nH]c3c4c(c5c(c3c12)C(=O)NC5=O)CCC4 [Compound 14o] |
| 176 nM | O=C1NC(=O)c2c1c1c(c3[nH]c4cccc(O)c4c23)CCC1 [Compound 14c] |
| 207 nM | CC(C)Oc1cccc2[nH]c3c4c(c5c(c3c12)C(=O)NC5=O)CCC4 [Compound 14h] |
| 25 nM | COCCOc1cccc2[nH]c3c4c(c5c(c3c12)C(=O)NC5=O)CCC4 [Compound 14f] |
| 4 nM | COc1cnc2[nH]c3c4c(c5c(c3c2c1)C(=O)NC5=O)CCC4 [Compound 8w] |
| 14 nM | O=C1NC(=O)c2c1c1c(c3[nH]c4nc(O)c(Cl)cc4c23)CCC1 [Compound 8s] |
| 4 nM | CO[n+]1cccc2c3c4c(c5c(c3[nH]c21)CCC5)C(=O)NC4=O [Compound 8o] |
| 10 nM | COc1cccc2c1c1c3c(c4c(c1n2CN1CCOCC1)CCC4)C(=O)N(CN1CCOCC1)C3=O [Compound 16a] |
| 4 nM | COc1ccnc2[nH]c3c4c(c5c(c3c12)C(=O)NC5=O)CCC4 [Compound 8x] |
| 9 nM | O=C1NC(=O)c2c1c1c(c3[nH]c4nccc(Cl)c4c23)CCC1 [Compound 8z] |
